Tests used:
[1] = test system: termite workers (gut protozoa); test: Defaunation of termites by feeding Metronidazole-treated filter paper; type: in vivo; details: for time to death of defaunated termites: Metronidazole feeding
Protocol: Using an aspirator, six groups of 100 termite workers each were collected and placed in Petri dishes containing damp filter paper. In addition, 10 soldiers were added to each group to enhance the overall survivorship rate. […] The remaining three groups of termites were transferred to Petri dishes containing paper that had been dampened with autoclaved tap water. All six replicates were transferred to an incubator and mortality was recorded every 24 hours. […] Once defaunation had been confirmed, all six groups were thereafter provided only with filter paper dampened with sterile tap water. Mortality was recorded each day. Statistically significant differences in mortality between treatment groups and control groups were established using 95% confidence intervals.

[2] = test system: termite protozoa (Pseudotrichonympha grassii Koidzumi, Holomastigotoides hartmanni Koidzumi, Spirotrichonympha leidyi Koidzumi); test: In vitro lytic peptide test on anaerobic cultures of termite hindgut protozoa; type: cell-based; details: 50 μM peptide, after 5-10 minutes
Text: (§1) Three protozoal species (Pseudotrichonympha grassii Koidzumi, Holomastigotoides hartmanni Koidzumi, and Spirotrichonympha leidyi Koidzumi) from the termite hindgut were maintained for 24 hrs in vitro, a sufficient time to allow testing of lytic peptides. The protozoa were removed from the termite hindgut in an anaerobic glove-box, and placed in sterile, sparged (Hydrogen 2.5%, Carbon dioxide 5% and Nitrogen 92.5%) Trager U (pH 7.0) saline solution. Positive controls for testing lytic peptides were established and validated with these cultures. The efficacy of the lytic peptides was then routinely tested prior to experiments to confirm both aerobic activity (using the “standard” T. pyriformis) and anaerobic activity (using cultures of the termite protozoa). One hundred percent mortality was observed after 5-10 minutes when any of these protozoa were treated with any one of three lytic peptides (hecate, melittin, or cecropin) at a 50 μM concentration, confirming the toxicity of the lytic peptides towards termite protozoa in an anaerobic environment that mimicked termite hindgut conditions.
(§2) The efficacy of each lytic peptide solution was confirmed using T. pyriformis and termite protozoa cultures in vitro before each microinjection test. A 5 ml overnight culture of T. pyriformis was washed three times in sterile 10 mM Tris-HCl (pH 7.4), and suspended in 1 ml 10 mM Tris-HCl (pH 7.4). Subsequently, 100 μl aliquots were placed in a Sigmacote™-treated, 96-well microplate. The lytic peptides were dissolved in 10 mM Tris-HCl. A range of concentrations (25-500 μM) of lytic peptide was added to each of several wells, and the remaining wells were treated with 10 mM Tris-HCl (pH 7.4) as control. After confirming aerobic activity of the lytic peptide concentrations against T. pyriformis, lytic peptide efficacy was then tested against anaerobic cultures of termite protozoa. Sparged lytic peptide was added anaerobically to the sparged cultures of termite protozoa, and mortality was observed.

[3] = test system: protozoa in the hindgut of termite workers; test: In vivo microinjection of lytic peptides into the termite hindgut; details: for relative effectiveness against protozoa in vivo among peptides tested: hindgut microinjection, 50 μM; for time to defaunation of injected termite workers: ~0.5 μl of 50 μM lytic peptide injected into hindgut
Text: A termite microinjection protocol was used to confirm directly the effect of lytic peptide in the hindgut. We first optimized the protocol by finding preferred conditions for each of the following: the time to immobilize a termite by cooling on ice; suitable methods for anchoring the termite in place for microinjection; and the maximum volume that could consistently be injected into the hindgut without causing direct trauma. Microinjection directly to the termite hindgut avoided the possibility of peptide degradation by non-specific protease activity in the foregut or midgut.
Termite workers were immobilized by chilling on ice for 1.5 min, and were then mechanically aspirated, head-first, into a modified pipette tip that had been trimmed to expose the terminus of the termite. This “termite holder” was attached to a micromanipulator, and the insect was advanced to insert a Sigmacote™-treated, fine glass needle into the anus of the termite. Lytic peptide or control solution was injected under the control of a high-speed, electronic foot pedal with pulse length control, to ensure that a constant volume was reproducibly injected into each insect. Approximately 0.5 μl of 10 mM Tris-HCl (pH 7.4) (control) or 0.5 μl of 50 μM lytic peptide dissolved in 10 mM Tris-HCl (pH 7.4) was injected into the hindgut of each termite. A second control group of non-injected termite workers was also included. The termites were housed in 3 cm Petri dishes, in which damp filter paper was provided. At 24, 48, and 72 hrs guts from randomly selected termites from each treatment were extirpated, and observations were made of the presence and motility of protozoa.

[4] = test system: Tetrahymena pyriformis; test: In vitro lytic peptide test on aerobic Tetrahymena pyriformis cultures; type: cell-based; details: 50 μM peptide, after 5-10 minutes
Protocol: The initial positive control for testing the efficacy of lytic peptide solutions was the aerobic, laboratory standard protozoan Tetrahymena pyriformis, cultures of which were purchased from Carolina Biological (#13-1182A) and maintained in proteose peptone media. Before each experiment, lytic peptide activity was tested using T. pyriformis.
as §1
as §2, with “After confirming aerobic activity of the lytic peptide concentrations against T. pyriformis, lytic peptide efficacy was then tested against anaerobic cultures of termite protozoa. Sparged lytic peptide was added anaerobically to the sparged cultures of termite protozoa, and mortality was observed.” left out

[5] = test system: termite workers (gut protozoa); test: Termite feeding experiments with yeast expressing lytic peptide; type: in vivo; details: summary statement
Protocol: Lytic peptide-expressing and control Kluyveromyces lactis strains were used in termite feeding experiments. Aliquots of 2 ml YPGal in Sigmacote™-treated 15 ml Falcon tubes were inoculated with yeast, which were then grown for 3 days, with shaking at 225 rpm at 30° C. The strains grown were K. lactis engineered with the expression vector (control), K. lactis expressing the control protein MBP, and K. lactis expressing a lytic peptide gene (either hecate or hecate-GFP fusion). The cultures were washed three times with sterile, deionized water, and re-suspended in 500 μl sterile 10 mM galactose. Galactose was used because the coding sequences were under the control of the LAC4 promoter, a strong promoter whose activity is induced by galactose. Secretion of active lytic peptide by the transformed K. lactis into the growth media was verified using in vitro cultures of the protozoa T. pyriformis.
Termites were collected in New Orleans, La., and were maintained on damp cardboard in plastic buckets at room temperature. Only termites that had been held in the laboratory less than 4 weeks were used in the feeding experiments. […]
Termite mortality was recorded every three days. The number of viable termites was also recorded, as cannibalism in laboratory colonies has sometimes been observed. […]

[6] = test system: termite symbiotic protozoa; details: preliminary data, poster 2002; cited from earlier work

Compound	mortality of defaunated termites versus controls ([1]; 95% confidence intervals did not overlap)	time to death of defaunated termites [1]	time to death of defaunated termites ([1]; listed as metronidazole)	time to defaunation of termite workers ([1]; filter paper treated with 400 μL Metronidazole (2 g/L)) [days]	mortality of termite protozoa [2]	relative effectiveness against protozoa in vivo among peptides tested [3]	time to defaunation of injected termite workers [3] [h]	mortality of T. pyriformis [4]	effect on protozoa in the termite gut [5]	time to death of the insect without protozoa [5]	killing of termite symbiotic protozoa in vitro [6]
Cc1ncc([N+](=O)[O-])n1CCO [Metronidazole]	significantly higher mortality	six	six and about six	≤ 7							
CC[C@H](C)[C@H](NC(=O)CN)C(=O)NCC(=O)N[C@@H](C)C(=O)N[C@H](C(=O)N[C@@H](CC(C)C)C(=O)N[C@@H](CCCCN)C(=O)N[C@H](C(=O)N[C@@H](CC(C)C)C(=O)N[C@H](C(=O)N[C@H](C(=O)NCC(=O)N[C@@H](CC(C)C)C(=O)N1CCC[C@H]1C(=O)N[C@@H](C)C(=O)N[C@@H](CC(C)C)C(=O)N[C@H](C(=O)N[C@@H](CO)C(=O)N[C@@H](Cc1c[nH]c2ccccc12)C(=O)N[C@H](C(=O)N[C@@H](CCCCN)C(=O)N[C@@H](CCCNC(=N)N)C(=O)N[C@@H](CCCCN)C(=O)N[C@@H](CCCNC(=N)N)C(=O)N[C@@H](CCC(N)=O)C(=O)N[C@@H](CCC(N)=O)C(N)=O)[C@@H](C)CC)[C@@H](C)CC)[C@@H](C)O)[C@@H](C)O)C(C)C)C(C)C [melittin]					One hundred	more effective against protozoa in vivo	72	One hundred			
cecropin					One hundred			One hundred			
falalkalkk alkklkkalk kal (FALALKALKKALKKLKKALKKA; This is the designed peptide known as hecate.)					One hundred	more effective against protozoa in vivo	72	One hundred	kill all (or at least most) species of protozoa in the termite gut	about six	would kill termite symbiotic protozoa

From US20090047235A1, “Paratransgenesis to Control Termites or Other Social Insects” (priority 2007, published 2009)
